Laboratory results from US20170354617A1, “METHOD OF TREATING OR PREVENTING OSTEOPOROSIS” (Research Foundation of the City University of New York, priority 2016, published 2017).

Experiments:
[1] = test system: bipolar manic-depressive patients; conditions: 300 mg per day for one year; cited from earlier work
rats = conditions: injected at a dose of 1 mg per kg; cited from earlier work
[2] = test system: estrogen-deficient (OVX) mice, post-menopausal type bone loss; assay: Ovariectomy (OVX) estrogen-depletion bone loss prevention in mice; format: in vivo
Description: Young adult mice were subjected to surgical ovariectomy (OVX) to deplete estrogen. This is widely accepted model for inducing post-menopausal type bone loss. It is the standard used by pharmaceutical companies in preclinical trials and is required by the FDA to confirm efficacy of an agent in preventing bone loss. Seven sham control mice received a surgical incision and wound closure but ovaries were left intact. Mice were return to their cages after surgery. Six “MB” mice received methylene blue in the cage water (0.2% in cage water supply starting 24 hours before surgery) which they were allowed to consume ad libitum for the duration of the study (three months); the remainder of the mice received normal cage water. Mice were sacrificed at three months post-OVX and bones were examined using microCT. The results are depicted in FIG. 2A and FIG. 2B which show bone changes with estrogen loss (OVX) were prevented by systemic treatment with methylene blue (MB). FIG. 2B is a graph of Bone Volume over Total Volume (BV/TV) for the groups of mice.

[3] = test system: aged mouse femur, age-related bone loss; assay: Age-related (Type 2) osteoporosis in aged mice, one year treatment; format: in vivo
Method: A one year old mouse is biologically similar to a 45-50 year-old human. Starting at 1 year of age, methylene blue was administered in the cage water supply (0.2% by weight) for one year to three male mice. Control mice received normal water. Animals were free to consume water and food ad libitum. Bones were examined when the mice were two years old, which is similar to a 75-80 year-old person.
FIG. 3A is a micro-Xray image of aged mouse femur from mouse with no treatment. Large holes or pores are clearly seen in the bone, as is thinning of the bone cortex. This is normal age-related osteoporosis.
FIG. 3B is a micro-Xray image of aged mouse femur from mouse after one year duration methylene blue treatment. No increases in porosity or cortex thinning are seen.

[4] = test system: chronic renal calculus disease; conditions: 65 mg taken three times a day; cited from earlier work

## CN(C)c1ccc2nc3ccc(=[N+](C)C)cc-3sc2c1 [methylene blue]
[1]
  Depression compared with placebo: significantly less depressed
rats
  Brain oxidative metabolism and memory retention: improved
[2]; 0.2% in cage water ad libitum, three months post-OVX, microCT of distal femur, OVX without treatment approx. 40% reduction in bone volume
  Bone loss, Bone Volume over Total Volume (BV/TV): almost completely prevented
[2]; mice model of estrogen removal
  Bone mechanical property: maintained
  Bone mineral density: maintained
  Cancellous bone loss after estrogen removal: prevent cancellous bone loss
  Osteocyte apoptosis: prevent osteocyte apoptosis
  Oxidative stress in bone cells: protect bone cells from oxidative stress
[3]; 0.2% by weight in cage water for one year from 1 year of age, male mice, femur examined at two years old, FIG. 4
  Bone porosity compared to bones from control mice: about half
[3]; 0.2% by weight in cage water for one year, aged mouse femur, FIG. 3B
  Cortex thinning (micro-Xray image): prevented the cortex or shell of the bone from thinning
[4]
  Management of chronic renal calculus disease: useful
